Positions count from the first letter of the chain named. Read-outs that look alike come from different tables or passages of the source.

The target in series [1] is T1, mouse AHR (mAHR B1-allele) (Mus musculus, UniProt P30561, M589L/N533S/P471L).
T1 sequence (P30561 10-805 P471L/N533S/M589L): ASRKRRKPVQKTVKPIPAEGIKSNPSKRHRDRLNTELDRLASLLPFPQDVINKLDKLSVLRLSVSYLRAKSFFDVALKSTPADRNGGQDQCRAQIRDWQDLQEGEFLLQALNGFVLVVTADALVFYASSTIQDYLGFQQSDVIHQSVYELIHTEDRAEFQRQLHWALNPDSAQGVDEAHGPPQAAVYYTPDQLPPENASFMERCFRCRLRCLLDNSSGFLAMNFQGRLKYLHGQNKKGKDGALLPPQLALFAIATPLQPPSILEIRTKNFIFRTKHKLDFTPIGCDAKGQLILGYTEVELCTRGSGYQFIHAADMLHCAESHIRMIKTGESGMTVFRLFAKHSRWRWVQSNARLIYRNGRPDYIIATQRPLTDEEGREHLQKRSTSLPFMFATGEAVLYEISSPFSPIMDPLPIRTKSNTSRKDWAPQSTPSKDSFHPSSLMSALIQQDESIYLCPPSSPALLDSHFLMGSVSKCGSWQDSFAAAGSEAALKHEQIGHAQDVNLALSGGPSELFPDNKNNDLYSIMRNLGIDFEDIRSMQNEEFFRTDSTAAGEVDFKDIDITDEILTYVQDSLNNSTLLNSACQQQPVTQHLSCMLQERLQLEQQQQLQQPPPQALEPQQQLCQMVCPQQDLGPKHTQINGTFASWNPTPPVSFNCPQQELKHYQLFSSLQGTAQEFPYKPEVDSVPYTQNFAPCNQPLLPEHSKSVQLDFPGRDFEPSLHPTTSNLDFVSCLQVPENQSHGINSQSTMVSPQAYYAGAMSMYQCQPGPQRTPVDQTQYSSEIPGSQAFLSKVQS
The series can be described thus: cell-based. The conditions noted are these: for biological response, eight-hour versus four-hour induction: 8 h vs 4 h. On the procedure:
The wild type and mutant mAHR were cloned into the XhoI/SalI cloning sites of pTARGET (Promega, Madison, Wis.) using routine PCR and molecular cloning procedures using the pSport-mAHR plasmid (PL65) as template (Dolwick, Swanson et al. 1993). For recombinant expression of mAHR, COS-1 cells were cultured in 6 cm dishes and transfected with 2 μg of wild-type or mutant mAHR expression vector. Twenty-four hours after transfection, cells were collected, and the whole cell extracts were prepared by celLytic M reagent (Sigma-Aldrich, St Louis, Mo.). 100 μg of whole cell extract was analyzed by western blot using antibodies that specifically recognize the mAHR (bear-2) and β-actin (Sigma).
COS-1 cells were cultured in 96-well plates and transiently transfected with pTarget vector containing the expression cassette of wild-type or mutant mAHR, or empty vector (3 ng), together with pGudLu6.1 DREs-driven luciferase reporter vector (14 ng) (Han, Nagy et al. 2004) and TK-renilla luciferase vector (3 ng) (Invitrogen, Carlsbad Calif.). […] The expressed luciferase activity was measured by ENSPIRE plate reader (Perkin Elmer, USA). Data analysis and simulation of dose response curves were performed using GraphPad Prism 5 (GraphPad software Inc., La Jolla, Calif.). The experiments were performed in triplicate and repeated at least three times. Representative results of one repeat are shown as mean±SEM.

The next series deals with mAHR H285A mutant. The series can be described thus: Luciferase reporter gene assay, mutant mAHR H285A in COS-1 cells. The class given is cell-based, mouse. The conditions noted are these: relative to WT mAHR.
In a further series the target is T2, AHR (Rattus norvegicus, UniProt P41738).
T2 sequence (P41738 10-853): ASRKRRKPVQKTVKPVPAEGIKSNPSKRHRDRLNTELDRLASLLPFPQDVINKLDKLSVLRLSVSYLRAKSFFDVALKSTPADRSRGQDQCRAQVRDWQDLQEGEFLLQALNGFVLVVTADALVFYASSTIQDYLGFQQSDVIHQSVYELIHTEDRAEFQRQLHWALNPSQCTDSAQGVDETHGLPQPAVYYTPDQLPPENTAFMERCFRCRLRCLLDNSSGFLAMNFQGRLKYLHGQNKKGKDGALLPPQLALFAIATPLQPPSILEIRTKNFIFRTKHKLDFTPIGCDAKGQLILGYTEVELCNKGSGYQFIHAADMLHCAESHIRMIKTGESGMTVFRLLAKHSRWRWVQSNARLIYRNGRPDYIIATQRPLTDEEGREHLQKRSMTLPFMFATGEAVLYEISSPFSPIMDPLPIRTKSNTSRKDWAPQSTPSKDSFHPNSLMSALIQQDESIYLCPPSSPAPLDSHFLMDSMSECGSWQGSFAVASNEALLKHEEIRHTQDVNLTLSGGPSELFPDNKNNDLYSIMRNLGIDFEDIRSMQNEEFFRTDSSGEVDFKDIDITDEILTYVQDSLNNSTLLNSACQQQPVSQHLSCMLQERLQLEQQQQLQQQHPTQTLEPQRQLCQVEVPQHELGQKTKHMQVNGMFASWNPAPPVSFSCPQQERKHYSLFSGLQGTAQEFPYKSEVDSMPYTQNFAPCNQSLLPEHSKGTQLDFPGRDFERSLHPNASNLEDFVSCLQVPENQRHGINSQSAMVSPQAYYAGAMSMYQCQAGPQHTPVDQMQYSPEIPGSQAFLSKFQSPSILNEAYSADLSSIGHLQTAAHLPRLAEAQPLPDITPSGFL
The conditions noted are these: Rannug, Rannug et al. 1987; cited from earlier work.

The next series deals with MH1C1 rat hepatoma cells. The conditions noted are these: MH1C1 rat hepatoma cells exposed for three hours; cited from earlier work.
For series [2], the system named is A375V variant of AHR (D allele). As to conditions: Chang 1993, Ema 1994, Poland 1994; cited from earlier work.
The target in series [3] is T3, mAHR genetic variant A375V (D-allele) (Mus musculus, UniProt P30561, A375V/F348L/M589L/N533S/P471L).
T3 construct: expressed in transfected cells; host or cells: COS-1
T3 sequence (P30561 10-805 F348L/A375V/P471L/N533S/M589L): T1 sequence (P30561 10-805 P471L/N533S/M589L) with F339L, A366V
The series can be described thus: Luciferase reporter gene assay, mAHR genetic variant A375V (D-allele). The conditions noted are these: compared with B-allele. The class given is cell-based. The source says:
Physiological relevant ligands of the AHR would be expected to activate polymorphic receptors within species and structurally variant receptors across species. As a model of this idea an important endogenous AHR ligands would be expected to activate AHR genetic variants arising from the murine Ahr B1 and D alleles. These two well-known genetic variants, harbor a key sequence variation at residue 375, with alanine in the B1 allele, and valine in the D allele (A375V). Residue 375 is located near the medial position of the AHR-LBD. […] These observations support the notion that AHR genetic variants might function through these endogenous ligands to control normal physiological functions.

The target of the next series is T4, mAHR Q377A mutant (Mus musculus, UniProt P30561, Q377A).
T4 construct: expressed in transfected cells; host or cells: COS-1
T4 sequence (P30561 10-805 Q377A limits assumed): T1 sequence (P30561 10-805 P471L/N533S/M589L) with Q368A, L462P, S524N, L580M
The series can be described thus: Luciferase reporter gene assay, mutant mAHR Q377A in COS-1 cells. The class given is cell-based. The conditions noted are these: relative to WT mAHR.

For series [4], the system named is mutant AHR, F289K, F281K, I373K, and L347R. The series can be described thus: Luciferase reporter gene assay, mAHR hydrophobic pocket mutants in COS-1 cells. The class given is cell-based, mouse.

In the case of 6-formylindolo [3,2-b] carbazole [FICZ], in series [1] (COS-1 cells), the “biological response, eight-hour versus four-hour induction” value is reported as “slightly reduced”. The “activity in the 20-hour induction” value in series [1] (COS-1 cells, 20 h vs 8 h and 4 h) is recorded as “further reduced”. For the same compound, the EC50 was 0.036 nM in series [1] (read-out: EC50 of AHR activation, COS-1 cells expressing mAHR, luciferase reporter, 4 hours) and 0.034 nM in the series with MH1C1 rat hepatoma cells. Further, in the series with mAHR H285A mutant, the “effect of H285A mutation on AHR induction activity” value was “remains partially receptive”. Moreover, the Kd on AHR is 0.07 nM.
As to `Clc1cc2c(cc1Cl)Oc1cc(Cl)c(Cl)cc1O2` [TCDD, 2,3,7,8-tetrachlorodibenzo-p-dioxin], the “binding to the A375V variant” value in series [2] was “weakened binding”.
Turning to `O=c1cc[nH]c2ccccc12` [4(1H)-Quinolinone (4-HQ), 4(1H)-Quinolinone], in series [1] (known chemical derivatives of kynurenine, FIG. 10b), the “activity in AHR induction (in words)” value is recorded as “did not show any activity”.
In the case of `c1ccc2c(c1)cc1ccc3cccc4ccc2c1c34` [BaP, benzo[a]pyrene], the “activation of the A375V D-allele” value in series [3] is “barely stimulate”.
In the case of `Nc1ccccc1C(=O)CC(N)C(=O)O` (centres unmarked) [kynurenine], in series [1], the “fold increase of activity by incubation or long-term storage” value is 100-1000 fold. Also, the “biological response, eight-hour versus four-hour induction” value in series [1] (COS-1 cells) is listed as “higher biological response”. This compound also yielded an EC50 in series [1] (EC50 of AHR activation, COS-1 cells expressing mAHR, luciferase reporter, 4 hours) of about 13000 nM. For the same compound, the “fold increase of AHR induction by incubation” value in series [1] (after 18 days at room temperature) and in series [1] (after three days at 37° C.) was about 100 fold throughout. In addition, the “maximum activity, higher than BaP” value in series [1] (relative to BaP, FIG. 2A) amounted to 60%. The “maximum AHR activation, higher than that induced by FICZ” value in series [1] (relative to FICZ, FIG. 1A) is recorded as about 40%. At mAHR Q377A mutant, the “effect of Q377A mutation on AHR induction activity” value is recorded as “barely affected”. Besides, in the series on mAHR H285A mutant, the “effect of H285A mutation on AHR induction activity” value was “completely disrupts”. Also, the “effect of F289K and F281K mutations on responsiveness of AHR” value in series [4] (F289K, F281K) was “completely abolished”. Further, in series [4] (I373K, L347R, FIG. 1c), the “effect of mutation of other hydrophobic residues to lysine or arginine on activity” value was “completely abolished”. For the same compound, in series [3], the “activation of the A375V D-allele” value was “readily activate”.
As to `c1ccc2c(c1)NC1=C3C2=NCC[C@H]3c2ccccc2N1` [274 ion fraction], the AC50 in series [1] was about 5 nM.
`Nc1ccccc1C(=O)CC(N)C(=O)O` (centres unmarked) [kynurenine (3 d, 6 m)] registered an EC50 in series [1] of 2.7 nM.
